Measurements as given in US8518859B2, “Method for increasing yield of staple food crop” (National University Corporation Shizuoka University, priority 2009, dated 2013).
Marks after values point to notes of the source that are not given here.

Legend:
[1] = tested on: Rice (cultivar: "Nipponbare"); test: Yield-increasing effect in hydroponic culture of rice (Example 1); format: in vivo, rice (genus Oryza)
Description: Rice (cultivar: “Nipponbare”) was used in the test. Seeds thereof were sown in a nursery box, and after 20 days of cultivation, the resulting rice seedlings were transplanted one by one to a pot (1/5000-a) and cultivated for 1 week with tap water.
After the cultivation with tap water, the thus obtained rice plants were cultured in a culture medium added with the AHX (50 μM), which was synthesized in the above, in an outdoor environment over a period of 97 days starting in July.
During the periods from the 8th day to the 32nd day and the period from the 73rd day to the 97th day after the transplantation, the culture was carried out in a medium having a half concentration of the undiluted culture medium, and during the period from the 33rd day to the 72nd day, the undiluted culture medium was used.
Water and nutrients were supplied once every 3 days. As the medium used for the addition, the culture medium for the AHX-treated section and the culture medium for the control section were respectively used in the AHX-treated section and the control section. It is noted here, however, that the culture medium was replaced once a week in the case of hydroponic culture.
The cereal crops obtained by the culture were dried for 2 weeks and the following items were measured: brown rice mass; water content, carbon content and nitrogen content of brown rice; size and number of brown rice (per plant); leaf length; culm length; panicle length; number of panicles; tiller number; and mass of the above-ground and underground parts. Here, the size of brown rice means the mass per grain determined from the brown rice mass (g/100 brown rice grains) and the number of brown rice refers to a value obtained by dividing the brown rice weight (g/plant) by the brown rice weight (g/100 brown rice grains) (number of plants n=6).

[2] = tested on: wheat (Nourin 61); test: Yield-increasing effect in wheat (Example 6); format: in vivo, wheat (genus Triticum); details: 6 pots
Description: In 1/2000-a pots having crushed gravel in the bottom, 6 kg of a paddy-rice nursery soil was placed and, as a base fertilizer, 5-7-6 (N—P—K) was added in an amount of 4 g. The soil was sufficiently watered and 3 days later, 10 grains of wheat (Nourin 61) were sown in each pot. The wheat was cultured providing 300 ml of water once a week, and the seedlings were thinned 2 weeks after germination to leave 5 seedlings showing good growth. In the subsequent two weeks, a total of 6 pots were each treated once a week with AHX (5 μM), AHX (50 μM), AHX (1 mM), ICA (2 μM) or water only (control). Then, after culturing for 9 weeks providing 300 ml of just water once a week, the culture was continued for another 12 weeks by changing the amount of water to 500 ml once a week. It is noted here that, 2 weeks after the change was made in the amount of water, 0.75 g of ammonium sulfate was added to each pot as a panicle fertilizer. Further, the AHX (1 mM) treatment pots were subjected to an additional treatment with AHX (1 mM) for 2 weeks after the addition of the panicle fertilizer. The culture was carried out from Oct. 26, 2009 to May 12, 2010. After the completion of the culture, drying was performed for two weeks and the total wheat yield (g/5 plants) was measured.

[3] = tested on: Rice (cultivar: "Nipponbare"); test: Yield-increasing effect in soil culture of rice 3, treatment before planting (Example 4); format: in vivo, rice (genus Oryza)
Description: Rice (cultivar: “Nipponbare”) was used in the test. Seeds thereof were sown in a nursery box, and after 16 days of cultivation, the resulting rice seedlings were transplanted to a pot (1/5000-a) and hydroponically cultured in a culture medium added with the AHX (1 mM) synthesized in the above for 2 weeks before settled-planting.
After the above-described hydroponic culture, the resulting seedlings were settled-planted in soil (in 1/5000-a pot) which contains a fertilizer containing N (1,440 mg), P2O5 (12 mg), K2O (760 mg) and CaO (806 mg). and soil-cultured from Jun. 10, 2009 to Sep. 29, 2009 in the same manner as in Example 1. During the soil culture period, no treatment with AHX was performed, and water and nutrients were supplied once per day. It is noted here that the culture medium was not replaced.
(§1) The cereal crops obtained by the soil culture were dried for 2 weeks and the following items were measured: brown rice mass; water content of brown rice; size and number of brown rice (per plant); panicle length; culm length; number of panicles; and mass of the above-ground part (n=6).

[4] = tested on: rice (Nipponbare); test: Yield-increasing effect in soil culture of rice 2 (Example 3); format: in vivo, rice (genus Oryza); details: for Brown rice weight (g/plant): soil culture Jun. 10 to Sep. 29, n=6; for Brown rice weight (g/100 brown rice grains) / Culm length (cm) / Mass of the above-ground part (g/plant) / Number of panicles (/plant) / Panicle length (cm): n=6; for Brown rice size: mass per grain
Description: Soil culture was carried out from Jun. 10, 2009 to Sep. 29, 2009 in the same manner as in Example 1, except that seedlings of rice (Nipponbare) obtained by a 30-day cultivation were transplanted one by one to a soil (in 1/5000-a pot) which contains a fertilizer containing N (1,440 mg), P2O5 (12 mg), K2O (760 mg) and CaO (806 mg).
Water and nutrients were supplied once a day. As the medium used for the addition, the culture medium for the AHX (5 μM)-treated section, the culture medium for the ICA (2 μM)-treated section and the culture medium the control section were respectively used in the AHX (5 μM)-treated section, the ICA (2 μM)-treated section and the control section. It is noted here that, unlike the case of hydroponic culture, the culture medium was not replaced.
as §1

[5] = tested on: rice (Nipponbare); test: Yield-increasing effect in soil culture of rice 1 (Example 2); format: in vivo, rice (genus Oryza); details: AHX 50 μM
Description: Soil culture was carried out for 97 days starting in July in the same manner as in Example 1, except that seedlings of rice (Nipponbare) were transplanted one by one to a soil (in 1/5000-a pot) which contains a fertilizer containing N (1,440 mg), P2O5 (12 mg), K2O (760 mg) and CaO (806 mg).
Water and nutrients were supplied once a day. As the medium used for the addition, the culture medium for the AHX (50 μM)-treated section and the culture medium for the control section were respectively used in the AHX (50 μM)-treated section and the control section. It is noted here that, unlike the case of hydroponic culture, the culture medium was not replaced.
The cereal crops obtained by the soil culture were dried for 2 weeks and the following items were measured in the same manner as in Example 1: brown rice mass; water content, carbon content and nitrogen content of brown rice; size and number of brown rice (per plant); leaf length; culm length; panicle length; number of panicles; tiller number; and mass of the above-ground part (n=7).

[6] = tested on: seed potato (cultivar: "Danshaku"); test: Yield-increasing effect in potato (Example 5); format: in vivo, potato (genus Solanum)
Description: A seed potato (cultivar: “Danshaku”) was cut into pieces of 30 g to 35 g in weight and they were each allowed to take roots in soil (in 1/2000-a pot) which contains a fertilizer containing N (960 mg), P2O5 (480 mg), K2O (640 mg) and MgO (320 mg). After 2-weeks of cultivation with tap water (after an above-ground part appeared), 2.74 mg (20 μmol) of AHX was dissolved in tap water and added to the pot every week. The Danshaku potato was cultured in an outdoor environment over a period of 12 weeks starting in January. The control section was treated with tap water only.
After 12 weeks, the Danshaku potato was harvested to measure the tuber mass (for the whole potato and a group consisting of potatoes having a weight of not less than 20 g that were extracted), the length and mass of the above-ground part and the leaf length (n=5).

[7] = AHX 50 μM, hydroponic culture 97 days, n=6
[8] = 1 mM-treatment before planting, soil culture, n=6
[9] = 20 μmol AHX per pot every week, 12 weeks, n=5

O=c1[nH]nnc2nc[nH]c12 [AHX, 2-azahypoxanthine]
Brown rice weight (g/plant) ([1]; AHX 50 μM in culture medium, hydroponic culture 97 days, n=6): 34.6 * g/plant | Number of brown rice (/plant) ([1]; AHX 50 μM, hydroponic culture 97 days): 1544 /plant | Brown rice weight (g/100 brown rice grains) [1, 7]: 2.24 * g/100 brown rice grains | Culm length (cm) [1, 7]: 60.7 cm | Leaf length (cm) [1, 7]: 72.2 * cm | Mass of the above-ground part (g/plant) [1, 7]: 103 *^ g/plant | Mass of underground part (g/plant) [1, 7]: 8.56 g/plant | Number of panicles (/plant) [1, 7]: 30.8 * /plant | Panicle length (cm) [1, 7]: 21.4 * cm | Tiller number (/plant) [1, 7]: 25.1 /plant | Brown rice size ([1]; AHX 50 μM, hydroponic culture 97 days, mass per grain): 22.4 mg | Increase of brown rice weight per plant ([1]; AHX 50 μM, hydroponic culture, vs control): about 6% | Seed Yield (g/5 plants) ([2]; 5 μM, once a week for two weeks, soil pots): 44.66 g/5 plants | Seed Yield (g/5 plants) ([2]; 50 μM, once a week for two weeks, soil pots): 45.68 g/5 plants | Seed Yield (g/5 plants) ([2]; 1 mM, once a week for two weeks plus additional 2 weeks after panicle fertilizer): 46.79 g/5 plants | Number of brown rice (/plant) ([3]; 1 mM-treatment before planting, soil culture): 2027 /plant | Brown rice weight (g/100 brown rice grains) [3, 8]: 2.15 g/100 brown rice grains | Culm length (cm) [3, 8]: 86 cm | Mass of the above-ground part (g/plant) [3, 8]: 154 *^ g/plant | Number of panicles (/plant) [3, 8]: 33 /plant | Panicle length (cm) [3, 8]: 21.1 cm | Brown rice size ([3]; 1 mM-treatment before planting, soil culture, mass per grain): 21.5 mg | Increase of brown rice weight per plant ([3]; 1 mM-treatment before planting, vs control): about 18% | Brown rice weight (g/plant) ([3]; 1 mM-treatment for 2 weeks before planting, then soil culture without AHX, n=6): 43.6 * g/plant | Number of brown rice (/plant) ([4]; 5 μM, soil culture): 2086 /plant | Brown rice weight (g/plant) ([4]; 5 μM): 46.3 * g/plant | Brown rice weight (g/100 brown rice grains) ([4]; 5 μM, soil culture): 2.22 g/100 brown rice grains | Culm length (cm) ([4]; 5 μM, soil culture): 89.8 cm | Mass of the above-ground part (g/plant) ([4]; 5 μM, soil culture): 150 g/plant | Number of panicles (/plant) ([4]; 5 μM, soil culture): 30.8 /plant | Panicle length (cm) ([4]; 5 μM, soil culture): 20.8 cm | Increase of brown rice weight per plant ([4]; 5 μM, soil culture, vs control): about 25% | Brown rice size ([4]; 5 μM, soil culture): 22.2 mg | Number of brown rice (/plant) ([5]; soil culture 97 days): 1864 /plant | Brown rice weight (g/100 brown rice grains) ([5]; soil culture 97 days, n=7): 2.28 g/100 brown rice grains | Brown rice weight (g/plant) ([5]; soil culture 97 days, n=7): 42.5 * g/plant | Culm length (cm) ([5]; soil culture 97 days, n=7): 70.0 cm | Leaf length (cm) ([5]; soil culture 97 days, n=7): 76.5 cm | Mass of the above-ground part (g/plant) ([5]; soil culture 97 days, n=7): 122 *^ g/plant | Number of panicles (/plant) ([5]; soil culture 97 days, n=7): 24.5 /plant | Panicle length (cm) ([5]; soil culture 97 days, n=7): 21.1 cm | Tiller number (/plant) ([5]; soil culture 97 days, n=7): 26.2 /plant | Brown rice size ([5]; soil culture 97 days, mass per grain): 22.8 mg | Increase of brown rice weight per plant ([5]; soil culture, vs control): about 10% | Leaf length (cm) [6, 9]: 7 cm | Length of the above-ground part (cm) [6, 9]: 24 cm | Mass of the above-ground part (g/plant) [6, 9]: 30 g/plant | Total mass (g · potatoes of not less than 20 g/plant) [6, 9]: 85 * g · potatoes of not less than 20 g/plant | Total mass (g/plant) of tubers ([6]; 2.74 mg (20 μmol) AHX per pot every week, 12 weeks, soil, n=5): 95 * g/plant | Increase of total mass of potatoes ([6]; treated with AHX for 12 weeks, vs control): about 19% | Increase of mass, only potatoes of not less than 20 g ([6]; treated with AHX for 12 weeks, vs control section): about 40%

NC(=O)c1c[nH]cn1 [ICA, imidazole-4-carboxamide]
Seed Yield (g/5 plants) ([2]; 2 μM, once a week for two weeks, soil pots): 47.99 g/5 plants | Number of brown rice (/plant) ([4]; 2 μM, soil culture): 2104 /plant | Brown rice weight (g/plant) ([4]; 2 μM): 46.5 * g/plant | Brown rice weight (g/100 brown rice grains) ([4]; 2 μM, soil culture): 2.21 g/100 brown rice grains | Culm length (cm) ([4]; 2 μM, soil culture): 87.2 cm | Mass of the above-ground part (g/plant) ([4]; 2 μM, soil culture): 152 g/plant | Number of panicles (/plant) ([4]; 2 μM, soil culture): 30.5 /plant | Panicle length (cm) ([4]; 2 μM, soil culture): 22.1 cm | Increase of grain weight per plant ([4]; 2 μM, soil culture, vs control): about 26% | Brown rice size ([4]; 2 μM, soil culture): 22.1 mg
